ChEMBL document CHEMBL1143226, “Potent inhibitors of the hedgehog signaling pathway” (J Med Chem, 2008)

Test: Antagonist activity at Hedgehog receptor expressed in 10t1/2 cells by Gli-luciferase reporter gene assay
Type: functional, cell-based

SMILES	IC50
CC(NC(=O)Nc1cccc(C(F)(F)F)c1)c1nc2ccccc2c(=O)n1-c1ccc(F)cc1 (stereo not given)	4700 nM
CC(C)n1c(CNC(=O)Nc2cccc(C(F)(F)F)c2)nc2ccccc2c1=O	4300 nM
CCc1nc2ccccc2c(=O)n1-c1ccc(F)cc1	> 10000 nM
O=C(NCc1nc2ccccc2c(=O)n1-c1ccc(F)cc1)Nc1ccc(Cl)c(C(F)(F)F)c1	70 nM
O=C(NCc1nc2ccccc2c(=O)n1-c1ccc(F)cc1)Nc1cccc(C(F)(F)F)c1	700 nM
COc1cc(NC(=O)NCc2nc3ccccc3c(=O)n2-c2ccc(F)cc2)cc(C(F)(F)F)c1	250 nM
CN(Cc1nc2ccccc2c(=O)[nH]1)C(=O)Nc1cccc(C(F)(F)F)c1	> 10000 nM
CC(c1nc2ccccc2c(=O)n1-c1ccc(F)cc1)N(C)C(=O)Nc1cccc(C(F)(F)F)c1 (stereo not given)	1400 nM
O=C(NCc1nc2ccccc2c(=O)n1-c1ccc(F)cc1)Nc1cc(Cl)nc(Cl)c1	110 nM
CNC(C)c1nc2ccccc2c(=O)n1-c1ccc(F)cc1 (stereo not given)	> 10000 nM
